Test results as given in patent publication US8895695B2, “Template-fixed beta-hairpin peptidomimetics with CXCR4 antagonizing activity” (priority 2003, dated 2014).
Numbered stars: 1 amine (or outer) side, 2 acyl side, 3 side chain; on linkers, the order of the positions; unused ones are H or OH. Bridge positions count the residues as written; N and C are the ends. Square brackets hold non-standard residues; d marks the D form. Peptide text beside a SMILES is read from it. Phe(4-F) = N[C@@H](Cc1ccc(F)cc1)C(=O)O; X2 = CN1CCN(CCCN(CC(=O)[*:2])[*:1])CC1; 2Nal = N[C@@H](Cc1ccc2ccccc2c1)C(=O)O; Cit = NC(=O)NCCC[C@H](N)C(=O)O; Dab = NCC[C@H](N)C(=O)O

How the values were obtained:
[1] = tested on: human red blood cells (hRBC); test: Hemolysis; format: cell-based
How it was run: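 Washed fresh human erythrocytes (20% v/v, about 0.9×10^9 cells/ml final) incubated with peptide at 100 μM for 1 h at 37° C. Supernatant diluted 20-fold and OD540 read. Percent hemolysis relative to 0.1% Triton X-100 in H2O (100%), with PBS alone as 0%.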

in vitro = details: human
Procedure: Each peptide concentration was assayed in triplicate. […] Wells were then washed once with PBS and subsequently 100 μl MTT reagent (0.5 mg/mL in medium RPMI1640 and, respectively, DMEM) was added to the wells. This was incubated at 37° C. for 2 hours and subsequently the medium was aspirated and 100 μl isopropanol was added to each well. […] For each concentration averages were calculated from triplicates. The percentage of growth was calculated as follows: (OD595peptide-OD595Tz-OD595Empty well)/(OD595Tz-OD595Empty well)×100% and was plotted for each peptide concentration.
‘CCR5’ cells were cultured in DMEM medium with 4500 mg/ml glucose, 10% fetal bovine serum (FBS), supplemented with 50 U/ml Penicillin and 50 μg/ml Streptomycin (Pen/Strept.). Hut/4-3 cells were maintained in RPMI medium, 10% FBS, supplemented with Pen/Strept. and 10 mM HEPES. HELA cells and CCRF-CEM cells were maintained in RPMI1640 plus 5% FBS, Pen/Strept and 2 mM L-Glutamine. Cos-7 cells were grown in DMEM medium with 4500 mg/ml glucose supplemented with 10% FCS, Pen/Strept. and 2 mM L-Glutamine. All cell lines were grown at 37° C. at 5% CO2.

CXCR4 = CXCR4 (Homo sapiens, UniProt P61073); test: Ca2+-assay method 2 (Flexstation, SDF-1 induced calcium mobilization); format: cell-based; set-up: expressed in transfected cells; host or cells: mouse pre-B cell line 300-19; details: method 2 (Ex. 54-160), mouse pre-B cell line 300-19 with human CXCR4, 10 nM SDF-1; read-out: IC50 (nM) Ca^2+ assay
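Wherever GI50 is given: MTT reduction read as absorbance at 595 nm, blank-corrected and expressed as percent growth relative to the time-zero cell reading, triplicate wells per concentration.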

Chain of CXCR4 (P61073 whole entry): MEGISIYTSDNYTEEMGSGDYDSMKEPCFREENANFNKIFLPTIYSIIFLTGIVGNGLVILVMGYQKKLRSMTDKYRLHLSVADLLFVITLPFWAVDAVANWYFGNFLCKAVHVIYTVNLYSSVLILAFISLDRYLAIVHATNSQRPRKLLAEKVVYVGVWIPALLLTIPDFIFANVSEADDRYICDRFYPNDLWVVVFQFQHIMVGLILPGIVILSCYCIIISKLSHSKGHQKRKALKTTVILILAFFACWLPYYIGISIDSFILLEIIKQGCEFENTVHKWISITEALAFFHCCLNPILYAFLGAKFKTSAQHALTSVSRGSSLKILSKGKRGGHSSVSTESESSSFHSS

Row | SMILES | Hemolysis at 100 μM [1] [%] | GI50 at 48 h (in vitro) [nM] | IC50 (CXCR4) [nM]
1 | N=C(N)NCCC[C@@H]1NC(=O)[C@@H]2CSSC[C@H](NC(=O)[C@H](Cc3ccc4ccccc4c3)NC(=O)[C@H](CCCNC(=N)N)NC(=O)[C@H](CCCNC(=N)N)NC(=O)[C@H]3CCCN3C(=O)CNC1=O)C(=O)N[C@@H](Cc1ccc(O)cc1)C(=O)N[C@@H](CCC(N)=O)C(=O)N[C@@H](CCCCN)C(=O)N1CCC[C@@H]1C(=O)N1CCC[C@H]1C(=O)N[C@@H](Cc1c[nH]c3ccccc13)C(=O)N[C@@H](CCCNC(=N)N)C(=O)N[C@@H](CCCNC(N)=O)C(=O)N2 [Ex. 66] (cyclo(WR[Cit]CRG[dP]RR[2Nal]CYQK[dP]P); disulfide 4-11) | 0 | 46000 | 3.8
2 | CN1CCN(CCCN2CC(=O)N[C@@H](Cc3ccc4ccccc4c3)C(=O)N[C@H]3CSSC[C@H](NC(=O)[C@H](CCCNC(N)=O)NC(=O)[C@H](CCCNC(=N)N)NC(=O)[C@H](Cc4ccc(O)cc4)NC(=O)[C@@H]4CCCN4C(=O)[C@H]4CCCN4C(=O)[C@H](CCCCN)NC(=O)[C@H](CCCNC(N)=O)NC(=O)[C@H](Cc4ccc(O)cc4)NC3=O)C(=O)N[C@@H](CCCNC(=N)N)C(=O)NCC(=O)N3CCC[C@@H]3C(=O)N[C@@H](CCCNC(=N)N)C2=O)CC1 [Ex. 126] (cyclo(YR[Cit]CRG[dP]R[X2][2Nal]CY[Cit]K[dP]P); disulfide 4-11) | 0 | 85000 | 19.5
3 | N=C(N)NCCC[C@@H]1NC(=O)[C@@H]2CSSC[C@H](NC(=O)[C@H](Cc3c[nH]c4ccccc34)NC(=O)[C@H](CCCNC(=N)N)NC(=O)[C@H](CCN)NC(=O)[C@H]3CCCN3C(=O)CNC1=O)C(=O)N[C@@H](Cc1ccc(O)cc1)C(=O)N[C@@H](CCC(N)=O)C(=O)N[C@@H](CCCCN)C(=O)N1CCC[C@@H]1C(=O)N1CCC[C@H]1C(=O)N[C@@H](Cc1ccc(O)cc1)C(=O)N[C@@H](CCCNC(=N)N)C(=O)N[C@@H](CCCNC(N)=O)C(=O)N2 [Ex. 109] (cyclo(YR[Cit]CRG[dP][Dab]RWCYQK[dP]P); disulfide 4-11) | 0 | 65000 | 3
4 | N=C(N)NCCC[C@@H]1NC(=O)[C@@H]2CSSC[C@H](NC(=O)[C@H](Cc3ccc(O)cc3)NC(=O)[C@H](CCCNC(=N)N)NC(=O)[C@H](CCCNC(=N)N)NC(=O)[C@H]3CCCN3C(=O)CNC1=O)C(=O)N[C@@H](CCCNC(N)=O)C(=O)N[C@@H](Cc1ccc(O)cc1)C(=O)N[C@@H](CCCCN)C(=O)N1CCC[C@@H]1C(=O)N1CCC[C@H]1C(=O)N[C@@H](Cc1ccc(O)cc1)C(=O)N[C@@H](CCCNC(=N)N)C(=O)N[C@@H](CCCNC(N)=O)C(=O)N2 [Ex. 113] (cyclo(YR[Cit]CRG[dP]RRYC[Cit]YK[dP]P); disulfide 4-11) | 0 | 45000 | 0.62
5 | N=C(N)NCCC[C@@H]1NC(=O)[C@@H]2CSSC[C@H](NC(=O)[C@H](Cc3ccc4ccccc4c3)NC(=O)[C@H](CCCNC(=N)N)NC(=O)[C@H](CCCNC(=N)N)NC(=O)[C@H]3CCCN3C(=O)CNC1=O)C(=O)N[C@@H](Cc1ccc(O)cc1)C(=O)N[C@@H](CCC(N)=O)C(=O)N[C@@H](CCCCN)C(=O)N1CCC[C@@H]1C(=O)N1CCC[C@H]1C(=O)N[C@@H](Cc1ccc(O)cc1)C(=O)N[C@@H](CCCNC(=N)N)C(=O)N[C@@H](CO)C(=O)N2 [Ex. 96] (cyclo(YRSCRG[dP]RR[2Nal]CYQK[dP]P); disulfide 4-11) | 1 | 69000 | 3
6 | CC[C@H](C)[C@@H]1NC(=O)[C@H](CCCNC(=N)N)NC(=O)[C@H](Cc2ccc(O)cc2)NC(=O)[C@@H]2CCCN2C(=O)[C@H]2CCCN2C(=O)[C@H](CCCCN)NC(=O)[C@H](CCC(N)=O)NC(=O)[C@H](Cc2ccc(O)cc2)NC(=O)[C@@H]2CSSC[C@H](NC1=O)C(=O)N[C@@H](CCCNC(=N)N)C(=O)NCC(=O)N1CCC[C@@H]1C(=O)N[C@@H](CCCNC(=N)N)C(=O)N[C@@H](CCCNC(=N)N)C(=O)N[C@@H](Cc1ccc3ccccc3c1)C(=O)N2 [Ex. 71] (cyclo(YRICRG[dP]RR[2Nal]CYQK[dP]P); disulfide 4-11) | 0.1 | 34000 | 2.7
7 | N=C(N)NCCC[C@@H]1NC(=O)[C@@H]2CSSC[C@H](NC(=O)[C@H](Cc3ccc4ccccc4c3)NC(=O)[C@H](CCCNC(=N)N)NC(=O)[C@H](CCCNC(=N)N)NC(=O)[C@H]3CCCN3C(=O)CNC1=O)C(=O)N[C@@H](Cc1ccc(O)cc1)C(=O)N[C@@H](CCCNC(N)=O)C(=O)N[C@@H](CCCCN)C(=O)N1CCC[C@@H]1C(=O)N1CCC[C@H]1C(=O)N[C@@H](Cc1ccc(O)cc1)C(=O)N[C@@H](CCCNC(=N)N)C(=O)N[C@@H](CCC(N)=O)C(=O)N2 [Ex. 130] (cyclo(YRQCRG[dP]RR[2Nal]CY[Cit]K[dP]P); disulfide 4-11) | 0 | 62000 | 4.1
8 | C[C@@H](O)[C@@H]1NC(=O)[C@H](CCCNC(=N)N)NC(=O)[C@H](Cc2ccc(O)cc2)NC(=O)[C@@H]2CCCN2C(=O)[C@H]2CCCN2C(=O)[C@H](CCCCN)NC(=O)[C@H](CCC(N)=O)NC(=O)[C@H](Cc2ccc(O)cc2)NC(=O)[C@@H]2CSSC[C@H](NC1=O)C(=O)N[C@@H](CCCNC(=N)N)C(=O)NCC(=O)N1CCC[C@@H]1C(=O)N[C@@H](CCCNC(=N)N)C(=O)N[C@@H](CCCNC(=N)N)C(=O)N[C@@H](Cc1ccc(O)cc1)C(=O)N2 [Ex. 145] (cyclo(YRTCRG[dP]RRYCYQK[dP]P); disulfide 4-11) | 0 | 97000 | 0.38
9 | N=C(N)NCCC[C@@H]1NC(=O)[C@@H]2CSSC[C@H](NC(=O)[C@H](Cc3ccc4ccccc4c3)NC(=O)[C@H](CCCNC(=N)N)NC(=O)[C@H](CCCNC(=N)N)NC(=O)[C@H]3CCCN3C(=O)CNC1=O)C(=O)N[C@@H](Cc1ccc(O)cc1)C(=O)N[C@@H](CC(N)=O)C(=O)N[C@@H](CCCCN)C(=O)N1CCC[C@@H]1C(=O)N1CCC[C@H]1C(=O)N[C@@H](Cc1ccc(O)cc1)C(=O)N[C@@H](CCCNC(=N)N)C(=O)N[C@@H](CCCNC(N)=O)C(=O)N2 [Ex. 77] (cyclo(YR[Cit]CRG[dP]RR[2Nal]CYNK[dP]P); disulfide 4-11) | 0.2 | > 100000 | 7
10 | N=C(N)NCCC[C@@H]1NC(=O)[C@@H]2CSSC[C@H](NC(=O)[C@H](Cc3ccc4ccccc4c3)NC(=O)[C@H](CCCNC(=N)N)NC(=O)[C@H](CCCNC(=N)N)NC(=O)[C@H]3CCCN3C(=O)CNC1=O)C(=O)N[C@@H](Cc1ccc(O)cc1)C(=O)N[C@@H](CCC(N)=O)C(=O)N[C@@H](CCCCN)C(=O)N1CCC[C@@H]1C(=O)N1CCC[C@H]1C(=O)N[C@@H](Cc1ccc(O)cc1)C(=O)N[C@@H](CCCNC(=N)N)C(=O)N[C@@H](Cc1ccc(F)cc1)C(=O)N2 [Ex. 99] (cyclo(YR[Phe(4-F)]CRG[dP]RR[2Nal]CYQK[dP]P); disulfide 4-11) | 1.1 | 40000 | 4.2
